Measurements taken from PMC12812009, “Optimization of 4‐Amino‐2‐Pyridone Inhibitors of Proprotein Convertase Subtilisin/Kexin Type 9: Integrating Structure–Activity and Structure–Metabolism Relationships” (Chemmedchem, 2025).

How the values were obtained:
LDLR protein = assay: Western blot of LDLR protein levels in HepG2 cells; assay type: cell-based, human; details: HepG2, 24 h
Protocol: (§1) The third step of our functional assay was focused on the most promising compounds from the previous step (6b and 7), looking at the PCSK9 and LDLR protein expressions in HepG2 cells treated with increasing concentrations of the compounds (2.5–5–10 µM). This analysis, conducted in comparison with 5c using a Western blot assay, aimed to provide a more comprehensive understanding of the intracellular activity and efficacy of these novel PCSK9i , further supporting their potential for preclinical development. […] Importantly, LDLR protein levels were increased by compound 7 only at 10 µM (+39%, p < 0.01, Figure 6B) as compared to basal condition.
(§2) HepG2 cells were seeded at the cellular density of 500,000 cells/well in a 6‐well tray, in 2 mL of complete medium, and incubated as described above. The day after, treatments were prepared in starving medium. The cells were washed once with PBS and then incubated with media containing treatments. […] Total protein content was measured through bicinchoninic acid (BCA) assay (Euroclone, EMP014250), according to manufacturer's instructions. […] Immunobands were detected with Imager Alliance Q9 ATOM Supreme by UVITEC (Cambridge, UK) after 5 min of membranes incubation in the dark with ECL Star solution (EuroClone, EMP001005). Every experimental condition was run in triplicate and the average cell viability and standard deviation was calculated.

PCSK9 protein = assay: Western blot of PCSK9 protein levels in HepG2 cells; assay type: cell-based, human; details: 10 µM, HepG2, 24 h
Protocol: as §1, §2

secreted PCSK9 [1] = assay: PCSK9 secretion in culture medium, ELISA on HepG2 supernatants; assay type: cell-based, human; details: for decrease of secreted PCSK9 vs. basal: given as decrease; for IC50: HepG2, Table S2, ELISA, non-cytotoxic concentrations, read-out: IC50 ± SD on PCSK9 secreted by HepG2
Protocol: Next, the levels of secreted PCSK9 were quantified by ELISA assay (Figure 5) only on supernatants collected from cells treated with noncytotoxic concentrations of each compound, as reported in Table 1. Simvastatin (Simva) at 20 and 40 μM and berberine (BBR) at 10 μM were included as controls. As described in the literature, simvastatin induces PCSK9 expression as a compensatory mechanism in response to its cholesterol‐lowering effects, being a pharmacological competitor for HMG‐CoA reductase, the rate‐limiting enzyme of the cholesterol biosynthetic pathway.^[ [29] ^] In contrast, BBR, a natural compound, reduces the expression of PCSK9 levels through transcriptional inhibition, thus increasing the LDLR availability on plasma membrane.^[ [30] ^] As additional and distinct mechanism to the latter, BBR is also able to stabilize the transcript of LDLR, thus increasing its half‐life.^[ [31] ^] As expected, cells stimulated with simvastatin released more PCSK9 into the culture medium compared to unstimulated cells, with a statistically significant concentration‐dependent effect (+73% at 20 μM, p < 0.01; +200% at 40 μM, p < 0.0001), while BBR at 10 μM decreased PCSK9 levels in the medium more than 50% (p < 0.0001 vs. basal) (Figure 5).^[ [32] ^] The amount of PCSK9 secreted into the culture media was measured with an appropriate ELISA kit (R&D System, DY3888 and DY008B2) on the supernatants collected during the MTT assay. Every experimental condition was run in duplicate and the average PCSK9 secretion and standard deviation was calculated. A 4PL regression analysis was used to interpolate unknowns with the standard curve using GraphPad Prism v10.2, according to manufacturers’ instructions. The data were normalized onto the corresponding cell viability, and IC50 was then calculated using GraphPad Prism v10.2.

circulating PCSK9 = system: circulating PCSK9; set-up: method as in PMID 38160616; details: mice; cited from earlier work
[2] = set-up: method as in PMID 38160616; details: seven days of daily subcutaneous administration; cited from earlier work
secreted PCSK9 [3] = system: secreted PCSK9; set-up: method as in PMID 38160616; details: 5 µM; cited from earlier work
[4] = Homo sapiens, 10 μM, HepG2, 24 h, read-out: secreted PCSK9 change vs. basal

| Compound | LDLR protein level change vs. basal (LDLR protein; 10 µM) | PCSK9 protein level change vs. basal (PCSK9 protein) [%] | decrease of secreted PCSK9 vs. basal (secreted PCSK9 [1]; 10 μM, HepG2, 24 h) [%] | decrease of secreted PCSK9 vs. basal (secreted PCSK9 [1]; 25 μM, HepG2, 24 h) [%] | IC50 (secreted PCSK9 [1]; Homo sapiens) [nM] | inhibition at 10 µM (secreted PCSK9 [1]; [4]) [%] | circulating PCSK9 levels in vivo (in words) (circulating PCSK9) | tolerability in mice (in words) [2] | PCSK9 secretion from HepG2 cells (in words) (secreted PCSK9 [3]) | LDLR expression (in words) (LDLR protein; 2.5–5–10 µM) | maximal reduction of PCSK9 protein levels vs. basal (PCSK9 protein) [%] | inhibition at 5 µM (secreted PCSK9 [1]; Homo sapiens, 5 μM, HepG2, 24 h, read-out: secreted PCSK9 change vs. basal) [%] |
| --- | --- | --- | --- | --- | --- | --- | --- | --- | --- | --- | --- | --- |
| Cc1cc2c(sc(=N)n2Cc2ccc(C(F)(F)F)cc2)c(=O)n1Cc1ccc(C(F)(F)F)cc1 [Compound 7, 2‐Imino‐6‐Methyl‐1,5‐Bis(4‐(Trifluoromethyl)benzyl)‐1,2‐Dihydrothiazolo[5,4‐c]pyridin‐4(5H)‐One] | +39% | −42 | 74 | 90 | 4100 ± 360 | 74 |  |  |  |  |  |  |
| Cc1cc(NCc2ccc(C(F)(F)F)cc2)cc(=O)n1Cc1ccc(C(F)(F)F)cc1 [Compound 5c] |  |  |  |  | 1700 ± 670 |  | did not demonstrate a significant reduction in circulating PCSK9 levels | well tolerated | effectively reduced PCSK9 secretion |  |  |  |
| Cc1cc(NCc2ccc(C(F)(F)F)cc2)c(Br)c(=O)n1Cc1ccc(C(F)(F)F)cc1 [Compound 6b, 3‐Bromo‐6‐Methyl‐1‐(4‐(Trifluoromethyl)Benzyl)‐4‐((4‐(Trifluoromethyl)Benzyl)Amino)pyridin‐2(1H)‐One] |  |  |  |  | 2600 ± 1610 | 90 |  |  |  | did not modulate its expression at all concentrations tested | 93 | 75 |
